Active and inactive are the calls of the source.
Experiments:
Cytochrome P450 2C9 = Cytochrome P450 2C9 (Homo sapiens, UniProt P11712); conditions: Potency
[1] = target: Melanin-concentrating hormone receptor 1 (Homo sapiens, UniProt Q99705); assay: Late-stage fluorescence-based counterscreen for antagonists of the G-protein coupled receptor 7 (GPR7): cell-based dose response assay to identify antagonists of the melanin-concentrating hormone receptor 1 (MCHR1). [Related pubchem assays (depositor defined):AID1861, AID1880, AID1952, AID2148, AID2251, AID2257, AID485339]; assay type: functional;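 also: stimulated with 30 nM MCH peptide agonist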
Chain of Melanin-concentrating hormone receptor 1 (Q99705 whole entry, the tested form may be a part): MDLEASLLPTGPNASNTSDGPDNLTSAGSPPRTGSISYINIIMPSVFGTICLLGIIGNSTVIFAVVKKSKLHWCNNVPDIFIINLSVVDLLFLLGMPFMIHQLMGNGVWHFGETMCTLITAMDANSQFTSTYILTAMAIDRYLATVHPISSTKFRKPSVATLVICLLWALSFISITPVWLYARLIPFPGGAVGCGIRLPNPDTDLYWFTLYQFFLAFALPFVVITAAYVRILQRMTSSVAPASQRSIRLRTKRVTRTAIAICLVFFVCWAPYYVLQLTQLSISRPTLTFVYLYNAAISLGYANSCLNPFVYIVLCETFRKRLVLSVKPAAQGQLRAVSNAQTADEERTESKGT

[2] = HIV-1 Env-mediated cell fusion inhibitors, dose response, CCR5-tropic Env (AID 2279); assay type: functional
[3] = target: Dual specificity protein phosphatase 3 (Homo sapiens, UniProt P51452); assay: VHR1 inhibitor Ki determination, SAR follow-up, biochemical, colorimetric (AID 2004)
Chain of Dual specificity protein phosphatase 3 (P51452 whole entry): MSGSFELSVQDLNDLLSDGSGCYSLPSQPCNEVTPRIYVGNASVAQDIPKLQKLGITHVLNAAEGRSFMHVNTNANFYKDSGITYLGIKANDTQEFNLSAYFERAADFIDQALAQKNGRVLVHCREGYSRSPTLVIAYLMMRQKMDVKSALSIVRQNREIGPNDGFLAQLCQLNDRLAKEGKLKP

BJ [4] = assay: cytotoxicity toward BJ-TERT fibroblasts, dose response, cell-based, RAS-independent, luminescence (AID 1933); assay type: functional; conditions: Homo sapiens
[5] = Counterscreen for IDE inhibitors: Luminescence-based cell-based high throughput dose response assay to identify compounds that are cytotoxic to HEK cells. [Related pubchem assays: 434962 (Primary screen (IDE inhibitors in singlicate)), 449730 (Counterscreen (Cytotoxicity in triplicate)), 435028 (Confirmation (IDE inhibitors in triplicate)) …; assay type: functional; conditions: HEK293
BJ [6] = assay: cells; assay type: functional, cell-based; conditions: Homo sapiens
[7] = target: T1, Kappa-type opioid receptor (Homo sapiens, UniProt P41145); assay type: functional
T1 sequence (P41145 whole entry): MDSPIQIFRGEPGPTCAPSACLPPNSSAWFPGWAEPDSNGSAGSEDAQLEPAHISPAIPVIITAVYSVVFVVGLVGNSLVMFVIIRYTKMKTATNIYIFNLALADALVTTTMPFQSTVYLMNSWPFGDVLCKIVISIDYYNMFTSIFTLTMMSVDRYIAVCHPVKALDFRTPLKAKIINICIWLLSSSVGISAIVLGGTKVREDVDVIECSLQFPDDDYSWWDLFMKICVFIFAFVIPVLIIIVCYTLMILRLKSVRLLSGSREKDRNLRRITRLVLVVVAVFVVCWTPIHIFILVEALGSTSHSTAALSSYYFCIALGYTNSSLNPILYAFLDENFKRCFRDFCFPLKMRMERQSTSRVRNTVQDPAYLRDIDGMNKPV

Insulin-degrading enzyme = target: T2, Insulin-degrading enzyme (Homo sapiens, UniProt P14735); assay: Dose Response: Fluorescence polarization-based cell-based high throughput dose response assay for inhibitors of insulin-degrading enzyme (IDE). [Related pubchem assays: 434962 (Primary screen (IDE inhibitors in singlicate)), 449730 (Counterscreen (Cytotoxicity in triplicate)), 435028 (Confirmation (IDE inhibitors in triplicate)), 434984 (Summary …; assay type: functional
T2 sequence (P14735 whole entry): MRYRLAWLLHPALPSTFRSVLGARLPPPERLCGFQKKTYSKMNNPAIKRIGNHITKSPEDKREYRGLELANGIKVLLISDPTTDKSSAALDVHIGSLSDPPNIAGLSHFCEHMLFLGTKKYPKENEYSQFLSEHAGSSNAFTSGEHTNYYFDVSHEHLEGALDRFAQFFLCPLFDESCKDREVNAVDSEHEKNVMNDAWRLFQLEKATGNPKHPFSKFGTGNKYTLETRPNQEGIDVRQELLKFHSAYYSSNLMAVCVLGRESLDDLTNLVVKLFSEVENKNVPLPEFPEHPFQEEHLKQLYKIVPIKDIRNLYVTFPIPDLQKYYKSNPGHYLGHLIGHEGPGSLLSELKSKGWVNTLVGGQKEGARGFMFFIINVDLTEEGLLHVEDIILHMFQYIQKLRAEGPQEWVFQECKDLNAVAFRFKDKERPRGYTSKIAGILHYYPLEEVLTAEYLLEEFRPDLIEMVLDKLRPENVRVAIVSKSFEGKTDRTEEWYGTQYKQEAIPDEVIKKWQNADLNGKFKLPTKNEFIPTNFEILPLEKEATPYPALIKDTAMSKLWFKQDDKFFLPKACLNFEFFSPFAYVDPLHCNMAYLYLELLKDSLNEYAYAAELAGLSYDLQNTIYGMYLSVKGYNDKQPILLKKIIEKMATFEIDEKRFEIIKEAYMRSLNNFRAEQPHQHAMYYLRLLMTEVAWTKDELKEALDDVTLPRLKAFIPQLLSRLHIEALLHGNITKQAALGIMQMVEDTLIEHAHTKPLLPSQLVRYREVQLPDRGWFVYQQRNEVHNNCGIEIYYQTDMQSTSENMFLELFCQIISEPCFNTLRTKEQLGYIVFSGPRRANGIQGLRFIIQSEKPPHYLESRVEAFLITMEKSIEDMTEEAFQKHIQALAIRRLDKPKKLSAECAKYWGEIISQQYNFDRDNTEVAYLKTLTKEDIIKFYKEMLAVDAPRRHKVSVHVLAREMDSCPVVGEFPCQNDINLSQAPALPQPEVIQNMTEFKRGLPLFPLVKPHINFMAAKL

Beta-galactosidase = Beta-galactosidase (Escherichia coli, UniProt Q8VNN2); assay type: functional
Chain of Beta-galactosidase (Q8VNN2 whole entry): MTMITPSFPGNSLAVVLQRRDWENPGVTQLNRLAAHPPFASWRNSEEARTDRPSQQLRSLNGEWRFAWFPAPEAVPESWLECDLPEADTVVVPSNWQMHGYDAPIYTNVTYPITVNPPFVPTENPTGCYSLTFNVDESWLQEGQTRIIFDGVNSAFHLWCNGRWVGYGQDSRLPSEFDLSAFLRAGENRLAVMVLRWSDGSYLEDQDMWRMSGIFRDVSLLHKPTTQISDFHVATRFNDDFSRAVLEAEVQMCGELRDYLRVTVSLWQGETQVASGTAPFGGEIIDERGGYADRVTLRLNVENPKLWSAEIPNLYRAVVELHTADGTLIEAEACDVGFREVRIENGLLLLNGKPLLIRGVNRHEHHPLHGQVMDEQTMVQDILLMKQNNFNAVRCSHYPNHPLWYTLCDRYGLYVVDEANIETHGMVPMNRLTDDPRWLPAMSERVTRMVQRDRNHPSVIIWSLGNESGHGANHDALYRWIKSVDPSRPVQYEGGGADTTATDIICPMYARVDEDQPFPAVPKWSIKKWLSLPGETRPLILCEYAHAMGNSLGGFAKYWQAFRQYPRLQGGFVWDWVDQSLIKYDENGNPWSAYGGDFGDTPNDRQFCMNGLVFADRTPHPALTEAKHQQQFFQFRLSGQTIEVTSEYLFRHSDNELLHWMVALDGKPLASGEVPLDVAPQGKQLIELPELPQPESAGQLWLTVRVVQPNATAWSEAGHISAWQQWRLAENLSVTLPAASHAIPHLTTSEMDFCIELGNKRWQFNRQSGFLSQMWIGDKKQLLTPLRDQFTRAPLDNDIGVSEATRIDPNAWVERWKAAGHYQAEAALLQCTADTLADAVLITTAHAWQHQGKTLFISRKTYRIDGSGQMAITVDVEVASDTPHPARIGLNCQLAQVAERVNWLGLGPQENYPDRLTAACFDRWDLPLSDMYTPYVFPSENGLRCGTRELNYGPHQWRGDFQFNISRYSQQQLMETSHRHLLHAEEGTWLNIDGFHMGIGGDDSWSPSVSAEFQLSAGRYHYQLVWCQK

BJ [8] = assay: cytotoxicity toward BJ-TERT-LT-ST fibroblasts, dose response, cell-based, RAS-independent, luminescence (AID 1935); assay type: functional; conditions: Homo sapiens;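 also: BJ fibroblasts immortalized with TERT plus LT and ST oncogenes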
[9] = target: T1, Kappa-type opioid receptor; assay type: functional; remark: listed apart in the source
[10] = cytotoxicity toward DRD oncogenic fibroblasts, dose response, cell-based, non-viral oncogenic, luminescence (AID 1934); assay type: functional; conditions: Homo sapiens
[11] = target: Luciferin 4-monooxygenase (Photinus pyralis, UniProt P08659); assay: Counter Screen for Luciferase-based Assay Positives. [Related pubchem assays: 620, 618, 411 ]
Chain of Luciferin 4-monooxygenase (P08659 whole entry): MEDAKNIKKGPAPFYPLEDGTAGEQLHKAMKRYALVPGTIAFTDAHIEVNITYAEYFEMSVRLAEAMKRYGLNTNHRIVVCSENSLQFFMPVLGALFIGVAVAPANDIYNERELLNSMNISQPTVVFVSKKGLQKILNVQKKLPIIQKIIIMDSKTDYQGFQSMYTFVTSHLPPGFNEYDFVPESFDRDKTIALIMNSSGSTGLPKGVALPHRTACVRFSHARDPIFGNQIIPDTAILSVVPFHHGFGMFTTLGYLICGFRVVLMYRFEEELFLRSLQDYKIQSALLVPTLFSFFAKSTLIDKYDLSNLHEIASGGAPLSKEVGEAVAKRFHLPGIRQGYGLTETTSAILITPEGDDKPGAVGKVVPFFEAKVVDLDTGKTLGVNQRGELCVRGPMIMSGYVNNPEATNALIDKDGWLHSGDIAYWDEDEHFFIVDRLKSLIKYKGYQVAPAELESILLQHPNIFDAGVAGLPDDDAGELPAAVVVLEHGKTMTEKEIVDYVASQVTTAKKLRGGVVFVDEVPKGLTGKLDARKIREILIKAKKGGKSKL

HT-1080 = assay: cytotoxicity in HT1080 fibrosarcoma cells, cell-based, fluorescence readout (AID 620); assay type: functional; conditions: Homo sapiens
cells = assay type: functional
[12] = target: G2/mitotic-specific cyclin-B1 (Homo sapiens, UniProt P14635); assay: Counterscreen assay for inhibitors of Wee1 degradation: dose response cell-based assay to identify inhibitors of cyclin B degradation. [Related pubchem assays: 1410, 1321 ]; assay type: functional
Chain of G2/mitotic-specific cyclin-B1 (P14635 whole entry): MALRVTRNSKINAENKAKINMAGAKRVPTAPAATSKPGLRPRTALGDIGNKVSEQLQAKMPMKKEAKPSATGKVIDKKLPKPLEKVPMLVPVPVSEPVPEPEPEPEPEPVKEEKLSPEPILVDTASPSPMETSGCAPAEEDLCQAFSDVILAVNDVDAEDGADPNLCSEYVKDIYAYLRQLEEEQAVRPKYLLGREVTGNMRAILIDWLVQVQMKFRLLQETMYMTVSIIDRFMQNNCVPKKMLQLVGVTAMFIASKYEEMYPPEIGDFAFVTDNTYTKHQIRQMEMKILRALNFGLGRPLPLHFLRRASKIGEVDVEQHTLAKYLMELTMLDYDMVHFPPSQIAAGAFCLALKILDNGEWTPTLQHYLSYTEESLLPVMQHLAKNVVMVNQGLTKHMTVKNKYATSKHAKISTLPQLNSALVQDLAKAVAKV

Wee1-like protein kinase = Wee1-like protein kinase (Homo sapiens, UniProt P30291); assay: Dose Response Cell-based Assay for Inhibitors of Wee1 Degradation. [Related pubchem assays: 1410, 1321 ]; assay type: functional
Chain of Wee1-like protein kinase (P30291 whole entry): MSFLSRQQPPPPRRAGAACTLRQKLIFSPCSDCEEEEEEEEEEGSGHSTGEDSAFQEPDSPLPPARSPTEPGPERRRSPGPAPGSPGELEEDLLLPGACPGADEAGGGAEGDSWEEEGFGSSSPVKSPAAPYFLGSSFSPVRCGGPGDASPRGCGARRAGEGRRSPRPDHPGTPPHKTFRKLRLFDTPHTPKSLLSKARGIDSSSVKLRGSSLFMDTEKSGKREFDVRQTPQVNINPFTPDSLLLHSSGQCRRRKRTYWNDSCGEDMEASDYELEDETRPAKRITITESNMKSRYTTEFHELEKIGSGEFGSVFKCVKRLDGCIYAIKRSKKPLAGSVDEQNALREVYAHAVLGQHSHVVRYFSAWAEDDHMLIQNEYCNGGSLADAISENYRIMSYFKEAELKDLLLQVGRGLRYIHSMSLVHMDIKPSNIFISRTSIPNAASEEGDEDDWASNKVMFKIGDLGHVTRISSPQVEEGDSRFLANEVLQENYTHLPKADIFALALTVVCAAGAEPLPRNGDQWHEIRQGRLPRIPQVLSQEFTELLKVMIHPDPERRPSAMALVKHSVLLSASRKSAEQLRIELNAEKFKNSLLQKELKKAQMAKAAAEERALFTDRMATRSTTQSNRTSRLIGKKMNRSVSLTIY

[13] = target: T3, Heat shock factor protein 1 (Mus musculus, UniProt P38532); assay: HSF1 potentiators in luciferase reporter cells, confirmation, cell-based, NIH3T3, luminescence, dose retest (AID 435004); assay type: functional;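 also: stress induced by proteasome inhibitor MG132 added 30 min after compound; luciferase reporter driven by HSF1 response element in NIH3T3 cells; actives raise luminescence as potentiators of the MG132 stress response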
T3 sequence (P38532 whole entry): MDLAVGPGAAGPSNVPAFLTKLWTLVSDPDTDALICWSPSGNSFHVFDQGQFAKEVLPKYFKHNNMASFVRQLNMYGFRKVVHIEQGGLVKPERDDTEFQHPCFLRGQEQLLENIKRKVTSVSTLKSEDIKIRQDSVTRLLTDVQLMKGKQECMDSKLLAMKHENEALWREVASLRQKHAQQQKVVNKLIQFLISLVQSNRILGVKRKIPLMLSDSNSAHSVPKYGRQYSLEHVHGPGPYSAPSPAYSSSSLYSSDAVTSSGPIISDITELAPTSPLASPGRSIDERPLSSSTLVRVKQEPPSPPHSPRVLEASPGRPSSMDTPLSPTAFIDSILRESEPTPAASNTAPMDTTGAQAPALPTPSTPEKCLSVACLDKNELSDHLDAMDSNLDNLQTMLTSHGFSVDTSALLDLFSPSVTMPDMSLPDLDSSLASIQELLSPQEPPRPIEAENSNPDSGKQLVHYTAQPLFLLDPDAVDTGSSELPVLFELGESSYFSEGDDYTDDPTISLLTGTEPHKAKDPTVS

[14] = target: FAD-linked sulfhydryl oxidase ALR (Homo sapiens, UniProt P55789); assay: inhibitors of human ALR sulfhydryl oxidase, dose response, biochemical, H2O2 detection, luminescence, cherry-pick (AID 493248)
[15] = target: Mothers against decapentaplegic homolog 3 (Homo sapiens, UniProt P84022); assay: Smad3 binding inhibitors, lysate ELISA, dose response, cell lysate, secondary confirmation, chemiluminescent ELISA, HEK293 lysate (AID 1058); assay type: functional
Chain of Mothers against decapentaplegic homolog 3 (P84022 whole entry): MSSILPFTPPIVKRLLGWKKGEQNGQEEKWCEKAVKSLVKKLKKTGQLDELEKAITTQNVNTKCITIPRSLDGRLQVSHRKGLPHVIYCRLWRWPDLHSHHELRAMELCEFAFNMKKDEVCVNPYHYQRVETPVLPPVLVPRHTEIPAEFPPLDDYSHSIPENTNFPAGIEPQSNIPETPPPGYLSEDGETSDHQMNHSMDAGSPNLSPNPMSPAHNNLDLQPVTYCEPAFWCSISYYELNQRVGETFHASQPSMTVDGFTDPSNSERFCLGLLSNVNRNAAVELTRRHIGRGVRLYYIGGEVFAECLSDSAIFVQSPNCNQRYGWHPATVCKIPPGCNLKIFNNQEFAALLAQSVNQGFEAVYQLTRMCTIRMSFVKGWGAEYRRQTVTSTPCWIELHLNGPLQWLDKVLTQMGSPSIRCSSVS

[16] = target: T4, Tyrosine-protein phosphatase non-receptor type 7 (Homo sapiens, UniProt P35236); assay type: functional
T4 sequence (P35236 whole entry): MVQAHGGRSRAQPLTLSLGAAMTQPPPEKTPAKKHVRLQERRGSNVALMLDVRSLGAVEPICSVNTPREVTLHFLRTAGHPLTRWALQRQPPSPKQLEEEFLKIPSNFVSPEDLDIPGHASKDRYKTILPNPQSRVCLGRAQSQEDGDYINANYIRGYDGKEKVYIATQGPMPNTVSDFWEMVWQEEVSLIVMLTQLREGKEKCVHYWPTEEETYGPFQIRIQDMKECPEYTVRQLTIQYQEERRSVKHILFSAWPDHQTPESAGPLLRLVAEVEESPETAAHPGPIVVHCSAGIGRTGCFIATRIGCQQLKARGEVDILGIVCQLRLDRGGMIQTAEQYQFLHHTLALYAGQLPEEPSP

[17] = target: Glyceraldehyde-3-phosphate dehydrogenase (Homo sapiens, UniProt P04406)
Chain of Glyceraldehyde-3-phosphate dehydrogenase (P04406 whole entry): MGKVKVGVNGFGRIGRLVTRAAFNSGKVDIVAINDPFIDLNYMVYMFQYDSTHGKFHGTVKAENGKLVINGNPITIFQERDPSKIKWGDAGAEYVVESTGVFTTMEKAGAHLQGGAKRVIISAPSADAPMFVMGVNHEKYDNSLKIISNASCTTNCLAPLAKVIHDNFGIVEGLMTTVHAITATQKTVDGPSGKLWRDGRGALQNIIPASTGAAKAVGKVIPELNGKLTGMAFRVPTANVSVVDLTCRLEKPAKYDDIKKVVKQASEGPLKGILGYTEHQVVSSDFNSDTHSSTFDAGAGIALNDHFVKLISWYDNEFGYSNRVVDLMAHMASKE

[18] = target: Heat shock cognate 71 kDa protein (Homo sapiens, UniProt P11142); assay: In Vitro Hsc70 Dose Response Fluorescence Polarization Assay. [Related pubchem assays: 1072 ]
Chain of Heat shock cognate 71 kDa protein (P11142 whole entry): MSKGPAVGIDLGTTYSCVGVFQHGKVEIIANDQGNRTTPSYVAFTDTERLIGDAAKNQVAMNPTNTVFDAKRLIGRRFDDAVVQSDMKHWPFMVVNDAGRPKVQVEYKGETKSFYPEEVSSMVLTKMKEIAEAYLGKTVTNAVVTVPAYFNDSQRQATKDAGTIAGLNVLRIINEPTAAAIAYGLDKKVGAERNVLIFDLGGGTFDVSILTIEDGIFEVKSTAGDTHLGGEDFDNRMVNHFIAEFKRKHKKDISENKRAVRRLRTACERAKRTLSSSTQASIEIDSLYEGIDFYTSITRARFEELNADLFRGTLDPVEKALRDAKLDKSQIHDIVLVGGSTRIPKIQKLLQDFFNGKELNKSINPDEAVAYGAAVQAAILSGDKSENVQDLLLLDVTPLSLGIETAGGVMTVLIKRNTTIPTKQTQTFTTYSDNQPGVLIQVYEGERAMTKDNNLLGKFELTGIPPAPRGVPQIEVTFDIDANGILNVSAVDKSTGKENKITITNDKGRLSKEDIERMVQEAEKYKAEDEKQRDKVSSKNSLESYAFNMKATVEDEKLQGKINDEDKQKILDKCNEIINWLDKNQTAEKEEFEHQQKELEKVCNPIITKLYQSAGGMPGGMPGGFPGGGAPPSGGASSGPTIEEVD

[19] = target: Heat shock 70 kDa protein 1A (Homo sapiens, UniProt P0DMV8); assay: Hsp70 inhibitors, SAR follow-up, biochemical, fluorescence polarization (AID 1072)
[20] = target: T5, Dual specificity protein phosphatase 6 (Rattus norvegicus, UniProt Q64346)
T5 sequence (Q64346 whole entry): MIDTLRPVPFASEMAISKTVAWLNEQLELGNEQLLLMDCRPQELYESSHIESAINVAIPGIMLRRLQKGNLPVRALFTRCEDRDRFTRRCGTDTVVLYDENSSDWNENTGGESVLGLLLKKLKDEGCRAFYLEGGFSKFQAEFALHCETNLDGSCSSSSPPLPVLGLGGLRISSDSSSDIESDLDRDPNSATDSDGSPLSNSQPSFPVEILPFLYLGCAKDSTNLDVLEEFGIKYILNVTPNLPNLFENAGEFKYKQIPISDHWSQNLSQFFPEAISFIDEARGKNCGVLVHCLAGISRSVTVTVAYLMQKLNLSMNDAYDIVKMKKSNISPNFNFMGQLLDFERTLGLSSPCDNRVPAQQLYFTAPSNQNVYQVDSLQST

[21] = target: T5, Dual specificity protein phosphatase 6; assay type: functional
[22] = target: T6, Neuropeptide Y receptor type 1 (Homo sapiens, UniProt P25929); assay type: functional;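 also: HEK293 cells with a CNG channel challenged with NPY then isoproterenol; potency as antagonist that reverses NPY suppression of cAMP signal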
T6 sequence (P25929 whole entry): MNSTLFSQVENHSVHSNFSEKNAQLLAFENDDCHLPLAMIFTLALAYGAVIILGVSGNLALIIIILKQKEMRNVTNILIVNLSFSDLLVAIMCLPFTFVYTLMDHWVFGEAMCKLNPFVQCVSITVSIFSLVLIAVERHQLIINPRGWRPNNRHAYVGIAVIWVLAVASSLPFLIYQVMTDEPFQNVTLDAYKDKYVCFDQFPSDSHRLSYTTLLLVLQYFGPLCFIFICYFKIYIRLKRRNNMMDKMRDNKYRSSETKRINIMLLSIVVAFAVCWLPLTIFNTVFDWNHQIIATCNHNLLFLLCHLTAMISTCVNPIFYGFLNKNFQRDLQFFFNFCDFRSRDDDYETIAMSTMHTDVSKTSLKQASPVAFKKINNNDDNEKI

[23] = target: T7, Neuropeptide Y receptor type 2 (Homo sapiens, UniProt P49146); assay type: functional, cell-based;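 also: HEK293 cells expressing the receptor and a CNG channel; stimulus was NPY near EC95 followed by isoproterenol to raise cAMP; antagonist potency measured as restoring cAMP signal that NPY suppresses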
T7 sequence (P49146 whole entry): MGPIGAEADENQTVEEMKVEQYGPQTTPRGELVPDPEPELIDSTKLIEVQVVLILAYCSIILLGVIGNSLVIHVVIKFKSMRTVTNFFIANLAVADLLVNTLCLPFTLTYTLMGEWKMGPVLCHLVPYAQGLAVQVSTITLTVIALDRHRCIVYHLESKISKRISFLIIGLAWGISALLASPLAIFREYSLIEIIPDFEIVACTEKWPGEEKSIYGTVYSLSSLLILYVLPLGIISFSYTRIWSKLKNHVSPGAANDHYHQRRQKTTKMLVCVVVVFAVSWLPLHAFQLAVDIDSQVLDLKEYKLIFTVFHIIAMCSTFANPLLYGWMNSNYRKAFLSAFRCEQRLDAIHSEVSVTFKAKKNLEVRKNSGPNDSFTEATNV

SMILES: CCOC(=O)OCC1OC(C#Cc2ccccc2)C=CC1OC(=O)OCC (centres undefined)
- AC50 (Cytochrome P450 2C9): 0.0794 µM (inconclusive)

SMILES: COc1ccc(Oc2c(Cl)cnn(-c3cccc(C)c3C)c2=O)cc1
- IC50 [1]: 12.5 µM (inactive)

SMILES: Cc1ccc(-c2nc(SCC(=O)Nc3ccccc3OC(F)F)c3c(C)c(C(=O)O)sc3n2)cc1
- IC50 [2]: 18.8 µM (active)

SMILES: Cn1c(=O)c2c(nc(S)n2Cc2ccccc2Cl)n(C)c1=O
- Ki [3]: 25.4 µM (inactive)

SMILES: CCN1C(=O)/C(=C/C=C2/Sc3ccccc3N2CCO)SC1=S
- EC50 (BJ [4]): 28.7 µM (active)
- IC50 [5]: 12.1 µM (not active)
- EC50 (BJ [6]): 30.4 µM (active)
- IC50 [7]: 13.2 µM (active)
- IC50 (Insulin-degrading enzyme): > 56 µM (not active)
- EC50 (Beta-galactosidase): 16.7 µM (active)
- EC50 (BJ [8]): > 150 µM (not active)
- IC50 [9]: 27.6 µM
- EC50 [10]: 50.2 µM (active)

SMILES: Cc1ccc(C(=O)COC(=O)c2cccs2)cc1
- EC50 [11]: 0.53 µM (active)
- EC50 (HT-1080): > 50 µM (not active)
- IC50 (cells): 24.3 µM (active)

SMILES: Cc1ccc2[nH]c(NCc3ccccc3)nc2c1
- EC50 [12]: > 49.7 µM (not active)
- EC50 (Wee1-like protein kinase): > 49.7 µM (not active)
- EC50 [13]: > 260 µM (inactive)
- AC50 [14]: 6.87 µM (active)

SMILES: COc1cc(C(c2cc3c(cc2O)OCO3)N2CCCC2)cc(OC)c1OC (centres undefined)
- IC50 [15]: > 40 µM (not active)

SMILES: Cc1cc(C)c2c(c1)C1C=CCC1C(C(=O)O)N2 (centres undefined)
- IC50 [16]: 70.2 µM (active)
- IC50 [17]: > 100 µM (not active)
- IC50 [18]: > 100 µM (not active)
- IC50 [19]: 24.7 µM (active)
- IC50 [20]: > 100 µM (inactive)
- IC50 [21]: > 100 µM (inactive)

SMILES: OC[C@H]1O[C@@H](n2cnc3c(Nc4ccccc4)ncnc32)[C@H](O)[C@@H]1O [N6-PHENYLADENOSINE]
- IC50 [22]: 7.83 µM (active)
- IC50 [23]: 4.73 µM (active)
